Source: patent US20240091218A1, “METHODS OF TREATING PROSTATE CANCER USING EXICORILANT AND ENZALUTAMIDE” (Corcept Therapeutics Incorporated, priority 2022, published 2024)
Where “and” joins values, the source holds several entries; their conditions need not be identical. Identical values can stand only once. Entries after “also recorded” stand apart in the source; their conditions may differ. Like-named read-outs stand apart in the source and are kept apart here.

What was measured:
[1] = tested on: GR target genes (CDKN1C); assay: GR target gene expression in blood (NanoString)
[2] = male, human, in vivo
[3] = tested on: metastatic castration-resistant prostate cancer (mCRPC)
Procedure: Patients received either exicorilant 180 mg twice daily (BID)+enzalutamide 160 mg once daily (QD), or exicorilant 140 mg BID+enzalutamide 160 mg QD with a 28-day enzalutamide lead-in, or exicorilant 140 mg BID+enzalutamide 160 mg QD without an enzalutamide lead-in. Segment 2 enrolled patients who were on a stable dose of enzalutamide with rising PSA (25% increase over nadir and an absolute value >1 ng/mL) and evaluated QD dosing of exicorilant in a double-blind design. All segment 2 patients received exicorilant 240 mg QD+enzalutamide and were randomized 3:1 to titrate to exicorilant 280 mg or 320 mg or to receive placebo.
Segment 2 of the study was a double-blind, placebo-controlled study of patients with rising PSA; exicorilant was administered once-daily, at a dose that was phased-in (titrated in these patients from 240 mg/day, to 280 mg/ day, to 320 mg/day). […] Twenty five patients were enrolled and randomized in a ratio of 3:1 to arm A or to arm B. Exicorilant was administered to the patients once per day, with food; enzalutamide was administered at the dose that was currently tolerated and stable for each patient. Pharmacokinetic assessments of both exicorilant and enzalutamide were made on cycle 1, day 15 (C1D15), and two weeks after each dose escalation; pharmacokinetic assessments of exicorilant were made after each dose reduction (if any). Pharmacodynamic (PD) assessments were made on cycle 1, day 1 (C1D1), cycle 1, day 15 (C1D15), and two weeks after each dose escalation every three cycles from cycle 3, and upon exicorilant discontinuation or disease progression.
PSADT was calculated prior to the first dose of exicorilant (patients on enzalutamide alone), and after C1D1, C2D1, and C3D1 (where “C1D1” stands for cycle 1, day 1 of the combined treatment; “C2D1” stands for cycle 2, day 1 of the combined treatment; and “C3D1” stands for cycle 3, day 1 of the combined treatment).
The median duration of exposure to exicorilant was 9.7 weeks (range: 2-61). In the results shown in FIG. 8A, tumor response was assessed by Prostate Cancer Clinical Trials Working Group 3 (PCWG3) criteria, incorporating modified “Response Evaluation Criteria in Solid Tumors v1.1” (mRECIST v1.1) criteria. Imaging-based PFS was assessed by mRECIST v1.1, progression on bone lesions per PCWG3, or death.

[4] = tested on: 22Rv1 prostate cancer xenografts; assay: mouse 22Rv1 prostate cancer xenografts; format: in vivo; settings: 21 days
From the text: Left: N=10 mice/group. Castration performed 5 days after inoculation with 22Rv1 tumor cells; exicorilant treatment initiated on day 6 for 21 days. Right: N=10 mice/group. Castration performed 3 days before implantation of 22Rv1 tumor cells; exicorilant treatment initiated on day 7 for 21 days.

[5] = From the text: The present study was an investigation of the safety and efficacy of exicorilant when administered in combination with enzalutamide in the treatment of patients suffering from metastatic castration-resistant prostate cancer (mCRPC). […] Patients with histologically confirmed prostate cancer, who had received at least two prior regimens of cytotoxic chemotherapy, were eligible for this study.
Patients in Segment 1 of the study received exicorilant twice daily under fasted conditions. This segment of the study was performed with a standard ‘3+3’ design, including one cohort with an enzalutamide alone lead-in. Enzalutamide was administered once daily.
Patients in Segment 2 of the study received exicorilant once daily under fed conditions. This segment of the study was a double-blind study, in which patients were randomized 3:1 to exicorilant titration (starting at 240 mg, titrated to 280 mg followed by 320 mg every 2 weeks as tolerated starting Cycle 1 Day 16) or to stay on exicorilant 240 mg+placebo. Enzalutamide was administered once daily.
Treatment emergent adverse events (TEAEs) and dose-limiting toxicity events (DLTs) were evaluated for the patients in Segment 2.
Dose-limiting toxicities (DLTs) were recorded from first dose of exicorilant through Cycle 3 and were defined as considered possibly or probably related to study drug by the investigator.

[6] = tested on: cortisol, ACTH; assay: serum cortisol, ACTH and 24-h urinary free cortisol in patients; format: in vivo, human; settings: for serum cortisol and ACTH levels: patients receiving exicorilant and enzalutamide
Procedure: Data from Segment 2 subjects whose exicorilant doses were escalated to the doses indicated on the horizontal axis. The 24-h UFC reference range was 10-100 μg/day. The 24-h UFC value for C1D1 (cycle 1, day 1) indicates the initial 24-h UFC levels.
Consistent with prior studies of exicorilant and other SGRMs, morning serum cortisol and ACTH levels were not affected in the safety population or patients who escalated to 320 mg exicorilant. […] The grey band indicates the baseline mean±SD. End of treatment: n=9; cycle 9 day 1: n=3; cycle 6 day 1: n=8; cycle 3 day 1: n=14; cycle 2 day 1: n=13; baseline: n=20.

[7] = tested on: ER and AR; assay: selectivity for GR relative to ER and AR
[8] = exicorilant pharmacokinetics in Segment 2 patients; format: in vivo, human; settings: for AUC(0-t) / Cmax: male, human, in vivo, oral, once daily with food; for AUC(0-t): read-out: AUC0-24, geometric mean; for Cmax: read-out: Cmax, geometric mean
From the text: Exicorilant pharmacokinetics observed in the patients in Segment 2 are illustrated in FIG. 4A (data are shown as geometric mean plus geometric standard deviation), and tabulated in TABLE 6.

[9] = molecular target: T1, human GR (Homo sapiens, UniProt P04150); assay: human GR binding
T1 sequence (P04150 1-777): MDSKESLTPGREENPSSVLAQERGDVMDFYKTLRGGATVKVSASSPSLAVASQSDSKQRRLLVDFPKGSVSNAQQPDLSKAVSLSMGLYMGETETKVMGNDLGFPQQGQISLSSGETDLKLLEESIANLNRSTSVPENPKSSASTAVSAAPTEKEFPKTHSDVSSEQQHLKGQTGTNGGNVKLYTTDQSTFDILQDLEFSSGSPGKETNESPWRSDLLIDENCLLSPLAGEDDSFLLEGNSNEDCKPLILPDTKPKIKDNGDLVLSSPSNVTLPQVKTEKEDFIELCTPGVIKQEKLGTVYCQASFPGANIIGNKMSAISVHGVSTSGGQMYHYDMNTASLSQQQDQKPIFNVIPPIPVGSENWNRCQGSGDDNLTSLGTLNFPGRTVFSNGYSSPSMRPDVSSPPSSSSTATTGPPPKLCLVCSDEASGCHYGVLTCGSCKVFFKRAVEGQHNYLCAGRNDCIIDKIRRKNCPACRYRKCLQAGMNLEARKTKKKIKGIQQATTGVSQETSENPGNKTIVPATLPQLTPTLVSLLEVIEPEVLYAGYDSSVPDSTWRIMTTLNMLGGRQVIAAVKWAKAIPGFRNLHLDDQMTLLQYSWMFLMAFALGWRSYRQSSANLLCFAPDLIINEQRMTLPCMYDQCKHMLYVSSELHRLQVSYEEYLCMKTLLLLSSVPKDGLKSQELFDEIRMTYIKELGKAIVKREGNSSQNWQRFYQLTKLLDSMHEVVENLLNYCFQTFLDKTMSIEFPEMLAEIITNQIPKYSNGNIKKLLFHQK

[10] = molecular target: T1, human GR; assay: human GR functional assays; format: cell-based
[11] = Segment 2 (n = 25), PCWG3 criteria
[12] = Arm A, EXI 240 mg + ENZA 160 mg (15 PK observations)
[13] = Arm A, EXI 280 mg + ENZA 160 mg (8 PK observations)
[14] = Arm A, EXI 320 mg + ENZA 160 mg (8 PK observations)
[15] = Arm B, EXI 240 mg + ENZA 160 mg (14 PK observations, combined)

Structure (SMILES): CNC(=O)c1ccc(N2C(=S)N(c3ccc(C#N)c(C(F)(F)F)c3)C(=O)C2(C)C)cc1F [enzalutamide]
- CDKN1C expression ([1]; enzalutamide alone, Segment 1 lead-in): not affected
- enzalutamide exposures in combination with exicorilant [2]: consistent with historical data for enzalutamide 160 mg alone

Structure (SMILES): CNC(=O)c1ccc(N2C(=S)N(c3ccc(C#N)c(C(F)(F)F)c3)C(=O)C2(C)C)cc1F.Cn1ncc(S(=O)(=O)N2CC[C@H]3Cc4c(cnn4-c4ccc(F)cc4)C[C@]3(C(=O)c3cc(C(F)(F)F)ccn3)C2)n1 [exicorilant+enzalutamide]
- PSA reductions at any time during treatment, % of patients ([3]; Segment 2): 56%
- PSA reductions at any time during treatment, number of patients ([3]; Segment 2): 14
- patients with greater than 25% increase in PSADT ([3]; Segment 2): Two
- PSA response (≥50% PSA reduction from baseline), number of patients ([3]; Segment 2 (n = 25)): 1
- reductions in PSA as compared to baseline, % of patients ([3]; Segment 2 (n = 25)): 15% and 16%
- reductions in PSA as compared to baseline, number of patients ([3]; Segment 2 (n = 25)): 4
- radiographic / imaging-based tumor responses ([3]; Segment 2 (n = 25), PCWG3/mRECIST v1.1): no radiographic responses; also recorded: no imaging-based tumor responses
- best overall response of stable disease, % of patients [3, 11]: 72%
- best overall response of stable disease, number of patients [3, 11]: 18
- PSADT increased, % of patients ([3]; Segment 2, After C1D1 (n = 25)): 52%
- PSADT increased, number of patients ([3]; Segment 2, After C1D1 (n = 25)): 13
- PSADT increased, % of patients ([3]; Segment 2, After C2D1 (n = 23)): 69.6%
- PSADT increased, number of patients ([3]; Segment 2, After C2D1 (n = 23)): 16
- PSADT increased, % of patients ([3]; Segment 2, After C3D1 (n = 13)): 61.4%
- PSADT increased, number of patients ([3]; Segment 2, After C3D1 (n = 13)): 8
- PSADT increase, % of patients ([3]; Segment 2 patients who received more than two cycles of the combined treatment): 61.5%
- PSA declines by the second on-treatment PSA assessment, number of patients ([3]; of 14 patients with PSA reductions): 11
- PSA reduction from baseline in one patient ([3]; patient who received 320 mg exicorilant with 160 mg enzalutamide): 71.1%
- PSA reduction from baseline in one patient ([3]; patient with 240 mg exicorilant + 160 mg enzalutamide): 36.7%
- increases in PSA doubling time, % of patients ([3]; patients dosed daily under fed conditions): more than 50%
- tumor growth ([4]; exicorilant with enzalutamide vs enzalutamide alone, castrated mice, N=10/group): significantly reduced tumor growth
- SAEs with a fatal outcome ([5]; Segment 2): No SAEs with a fatal outcome
- grade 5 TEAEs ([5]; all patients): no grade 5 adverse events; also recorded: no grade 5 TEAEs
- grade 4 TEAEs, number ([5]; human, in vivo): one
- tolerated phase 2 regimen, exicorilant dose ([5]; once-daily, combined with 160 mg enzalutamide once daily, based on DLTs): 240 mg
- dose-limiting events ([5]; segment 1, exicorilant BID fasted): Dose-limiting fatigue, musculoskeletal pain, and pancreatitis
- serum cortisol and ACTH levels [6]: neither ACTH nor cortisol levels are significantly elevated

Structure (SMILES): Cn1ncc(S(=O)(=O)N2CC[C@H]3Cc4c(cnn4-c4ccc(F)cc4)C[C@]3(C(=O)c3cc(C(F)(F)F)ccn3)C2)n1 [exicorilant, ((4aR,8aS)-1-(4-fluorophenyl)-6-((2-methyl-2H-1,2,3-triazol-4-yl)sulfonyl)-4,4a,5,6,7,8,8a,9-octahydro-1H-pyrazolo[3,4-g]isoquinolin-4a-yl)(4-(trifluoromethyl)pyridin-2-yl)methanone]
- selectivity for GR [7]: selectivity for GR relative to ER and AR
- tumor growth ([4]; exicorilant with castration vs castration alone, N=10 mice/group): significantly reduced tumor growth
- pharmacodynamic effects (gene expression), with food vs fasting ([1]; 240-320 mg QD with food vs BID fasting (Segment 1)): larger when exicorilant was administered with food; also recorded: greater than those observed in fasted patients
- modulation of GR target genes ([1]; patients receiving exicorilant): confirmed modulation of GR target genes; also recorded: Modulation of GR target genes was observed
- exicorilant exposures across arms and dose levels ([8]; Segment 2, 240-320 mg): largely overlapping across arms and dose levels
- AUC(0-t) [8, 12]: 366 µg·h/mL
- Cmax [8, 12]: 17700 ng/mL
- AUC(0-t) [8, 13]: 401 µg·h/mL
- Cmax [8, 13]: 19600 ng/mL
- AUC(0-t) [8, 14]: 428 µg·h/mL
- Cmax [8, 14]: 19600 ng/mL
- AUC(0-t) [8, 15]: 375 µg·h/mL
- Cmax [8, 15]: 17200 ng/mL
- Ki [9]: < 1 nM
- most frequently reported TEAE assessed as related to exicorilant ([5]; human, in vivo): fatigue
- Exicorilant-related TEAE ALP increased, % of patients ([5]; male, human, in vivo): (12.0%)
- Exicorilant-related TEAE ALP increased, number of patients ([5]; male, human, in vivo): 3
- Exicorilant-related TEAE Anemia, % of patients ([5]; male, human, in vivo): (16.0%)
- Exicorilant-related TEAE Anemia, number of patients ([5]; male, human, in vivo): 4
- Exicorilant-related TEAE Constipation, % of patients ([5]; male, human, in vivo): (28.0%)
- Exicorilant-related TEAE Constipation, number of patients ([5]; male, human, in vivo): 7
- Exicorilant-related TEAE Decreased appetite, % of patients ([5]; male, human, in vivo): (24.0%)
- Exicorilant-related TEAE Decreased appetite, number of patients ([5]; male, human, in vivo): 6
- Exicorilant-related TEAE Lymphocyte count decreased, % of patients ([5]; male, human, in vivo): (12.0%)
- Exicorilant-related TEAE Lymphocyte count decreased, number of patients ([5]; male, human, in vivo): 3
- Exicorilant-related TEAE Nausea, % of patients ([5]; male, human, in vivo): (20.0%)
- Exicorilant-related TEAE Nausea, number of patients ([5]; male, human, in vivo): 5
- Exicorilant-related TEAE Pain in extremity, % of patients ([5]; male, human, in vivo): (20.0%)
- Exicorilant-related TEAE Pain in extremity, number of patients ([5]; male, human, in vivo): 5
- Patients with any TEAE related to exicorilant, % ([5]; male, human, in vivo): (92.0%)
- Patients with any TEAE related to exicorilant, number ([5]; male, human, in vivo): 23
- SAEs assessed as being related to exicorilant, number ([5]; male, human, in vivo): 1
- exicorilant-related AE back pain, % of patients ([5]; male, human, in vivo): 35%
- exicorilant-related AE decreased appetite, % of patients ([5]; male, human, in vivo): 27%
- exicorilant-related AE fatigue, % of patients ([5]; male, human, in vivo): 57%
- exicorilant-related AE pain in extremity, % of patients ([5]; male, human, in vivo): 22%
- 24-h urinary free cortisol (UFC) levels ([6]; Segment 2 subjects with escalated exicorilant doses): did not increase UFC levels
- serum cortisol and ACTH levels [6]: did not affect cortisol or ACTH levels; also recorded: not significantly altered; also recorded: no significant alterations
- Ki [10]: < 15 nM
- mode of action at GR [10]: competitive, reversible, full antagonist of GR
